Counter-ions that a name gives are not always drawn. Like-named read-outs stand apart in the source and are kept apart here.
Legend:
in vitro [1] = conditions: human
DENV-2 = DENV-2 infection assay / secondary screen (E protein staining); assay type: cell-based, dengue virus serotype 2; conditions: for inhibition at 10 µM: Dengue virus, DENV2, Huh-7, 24 h, read-out: % inhibition (DENV-2 screen)
SFV = assay: microbe, parasite or virus in culture; assay type: cell-based, Semliki Forest virus; conditions: for % inhibition (SFV screen): 10 µM; for inhibition at 10 µM / IC50: Semliki Forest virus; for inhibition at 10 µM: M-HeLa, read-out: % inhibition (SFV screen); for IC50: HeLa Kyoto
HeLa Kyoto cells [2] = conditions: 10 µM
in vitro [3] = conditions: human; remark: listed apart in the source
Huh7 cells = conditions: 10 µM, Huh7, 24 h, compared to DMSO-treated controls
HeLa Kyoto cells [4] = conditions: human
[5] = test system: Renilla luciferase expression (protein synthesis); assay type: cell-based

SMILES | viability at 10 µM (in vitro [1]) [%] | inhibition at 10 µM (DENV-2) [%] | inhibition at 10 µM (SFV; 7 h) [%] | viability at 10 µM (in vitro [3]; % viability (SFV screen)) [%] | other results
Nc1ncn([C@@H]2O[C@H](CO)[C@@H](O)[C@H]2O)c(=O)n1 [5-azacytidine] | 106 | 9.67 | 99.8 | 75.5 | % inhibition (SFV screen) (SFV): 101.05%; % viability (SFV screen) (HeLa Kyoto cells [2]; human): 75.30%
Nc1ncnc2c1ncn2[C@@H]1O[C@H](COP(=O)(O)O)[C@@H](O)[C@H]1O [Adenosine 5'-monophosphate monohydrate] | 105 | -177 | 73.4 | 86.8 | –
Nc1c2ccccc2nc2ccccc12 [Aminacrine] | 23.3 | – | 89.2 | 87.4 | –
Cl.Cn1c(CCCC(=O)O)nc2cc(N(CCCl)CCCl)ccc21 [Bendamustine hydrochloride] | – | – | – | – | % inhibition (DENV-2 screen) (DENV-2; 10 µM): 56.91%; % viability (DENV-2 screen) (Huh7 cells): 85.62%; % inhibition (SFV screen) (SFV): 104.91%; % viability (SFV screen) (HeLa Kyoto cells [2]): 76.50%
[H]/N=C(\N/C(=N/[H])NCCCCCCNC(=N)NC(=N)Nc1ccc(Cl)cc1)Nc1ccc(Cl)cc1 [Chlorhexidine] | 16.6 | – | 96.6 | 96.2 | –
CCN(CC)CCOc1ccc(C(=C(Cl)c2ccccc2)c2ccccc2)cc1 [Clomiphene, Clomiphene citrate (Z,E)] | 41.8 | 99.3 | 77.8 | 97.1 | TC50 SFV (7h) (HeLa Kyoto cells [4]): 27400 µM
C[C@@H]1C[C@@H]([C@H](O)CC2CC(=O)NC(=O)C2)C(=O)[C@@H](C)C1 [Cycloheximide] | – | 64.5 | 99.9 | – | viability at 24 h, 10 µM (in vitro [1]): 60.1%; viability at 10 µM (in vitro [3]): 94%
CC[C@H]1CN2CCc3cc(OC)c(OC)cc3[C@@H]2C[C@@H]1C[C@H]1NCCc2cc(OC)c(OC)cc21 [Emetine dihydrochloride hydrate] | 51.2 | 100 | 104 | 104 | Renilla signal (in words) [5]: significantly reduced the Renilla signal
Nc1ccn([C@@H]2O[C@H](CO)[C@@H](O)C2(F)F)c(=O)n1 [Gemcitabine] | 61.8 | -137 | 67 | 102 | –
CCCCN(CCCC)CCC(O)c1cc2c(Cl)cc(Cl)cc2c2cc(C(F)(F)F)ccc12 (centres unmarked) [Halofantrine, Halofantrine hydrochloride] | 89.4 | 83.6 | 102 | 96.9 | IC50 (SFV; 7 h, read-out: IC50 SFV): 116 µM; IC50 (SFV; read-out: IC50 SFV (7 h)): > 100 µM; TC50 SFV (7h) (HeLa Kyoto cells [4]): 290400 µM
Clc1cc(Cl)c(OCC#CI)cc1Cl [Haloprogin] | 104 | 1.64 | 99.8 | 75.4 | –
c1ccc2c(c1)OCC(C1=NCCN1)O2 (centres unmarked) [Idazoxan hydrochloride] | 71.2 | 48.8 | 94.5 | 67.6 | –
CN[C@@H]1C[C@@H](c2ccc(Cl)c(Cl)c2)c2ccccc21 [Indatraline hydrochloride] | 1.66 | – | 72.2 | 76.4 | –

— paper PMC6410080 (Viruses, 2019)
